Results: patent publication US20050143472A1, “Novel treatment for pathologies associated with oxidative damage” (priority 2002, published 2005)
Read-outs that look alike come from different tables or passages of the source.

What was measured:
[1] = system: hpao mRNA
Method: In addition, a reverse-transcriptase-PCR (RT-PCR) experiment was performed to analyze the expression of hpao in OVCAR-3 and HL-60 cells. Briefly, about 10^6 to 10^7 cells were harvested and the total RNA of each sample was isolated by using the RNeasy miniprep kit (QIAGEN). A 1 μg mRNA sample was used for cDNA synthesis with the MMLV reverse transcriptase following the manufacturer's instructions provided with the Advantage RT-for-PCR Kit (Clontech). Human liver and placenta polyA mRNA were also obtained from Clontech. cDNA amplification was achieved following the SMART RACE™ cDNA Amplification method (Clontech). A pair of gene specific primers was generated based on the hpao cDNA sequence; hpao1 was the sense primer 5′-[…] ACCTTTC-3′ (SEQ ID NO:17), and hpao2R was the antisense primer 5′-[…] AGT-3′ (SEQ ID NO:18). Positive control amplimers for human G3PDH (glyceraldehyde-3-phosphate-dehydrogenase) were also used; the sense primer was 5′-[…] G-3′ (SEQ ID NO:19) and the antisense primer was 5′-[…] CT-3′ (SEQ ID NO:20). PCR was performed at 94° C. for 3 min, 25 cycles at 94° C. for 10 sec, 68° C. for 1 min, and 72° C. for 1 min.
In this Example, the method used to examine hpao mRNA production by cultured cells undergoing apoptosis is described.

[2] = molecular target: T1, mPAO (Mus musculus, UniProt Q8C0L6); assay: HPLC analysis of PAO oxidation products; type: biochemical, murine
T1 construct: the full length cDNA of mpao was released by Nde I and Hind III treatment, and ligated into Nde I and Hind III sites of pET29c; made in house; host or cells: E. coli BL21 GOLD (DE3), plasmid pET-MPAO (pET29c)
Description: In this example, methods are described for determining the nature of the products of substrate oxidation by PAO. In a solution at pH 7.6 containing catalase to destroy H2O2, mPAO and N^1-acetyl-Spm, at known concentrations, were allowed to react until the latter had been completely oxidized. mPAO and N^1-acetyl-Spd were similarly allowed to react. Both reactions solutions contained a known amount of N-(3-aminopropyl)-1,10-diaminodecane (Tocris Cookson) as an internal standard. […] Aliquots of these reaction mixtures were treated with dansyl chloride (5-dimethylamino-1-naphthalenesulfonyl chloride) obtained from Sigma. The resulting dansylated polyamine products from each reaction were analyzed by reverse-phase high-pressure liquid chromatography (HPLC) following established procedures (Hunter, Methods in Molecular Biology: Polyamine Protocols, Morgan (ed.) Human Press, Totowa, N.J., Vol. 79, Chapter 14, pp 119-123). […] Detection was accomplished with a Gilson Spetra/Glo fluorescence detector using a 7-51× excitation filter (330-400 nm) and a 3-72M emission filter (460-600 n m). […]
Aliquots of each of the above described enzyme-reaction solutions were treated with an equal volume of 2,4-dinitrophenylhydrazine (Acros Organics) solution (100 mg in 94 mL ethanol+6 mL of concentrated HCl). […] The 368-nm chromatograms were used for quantitative analyses.

T1 sequence (Q8C0L6 whole entry E184K/L285S/R416L/R417S/Q419R/E451A/V490I/S491G/V497A): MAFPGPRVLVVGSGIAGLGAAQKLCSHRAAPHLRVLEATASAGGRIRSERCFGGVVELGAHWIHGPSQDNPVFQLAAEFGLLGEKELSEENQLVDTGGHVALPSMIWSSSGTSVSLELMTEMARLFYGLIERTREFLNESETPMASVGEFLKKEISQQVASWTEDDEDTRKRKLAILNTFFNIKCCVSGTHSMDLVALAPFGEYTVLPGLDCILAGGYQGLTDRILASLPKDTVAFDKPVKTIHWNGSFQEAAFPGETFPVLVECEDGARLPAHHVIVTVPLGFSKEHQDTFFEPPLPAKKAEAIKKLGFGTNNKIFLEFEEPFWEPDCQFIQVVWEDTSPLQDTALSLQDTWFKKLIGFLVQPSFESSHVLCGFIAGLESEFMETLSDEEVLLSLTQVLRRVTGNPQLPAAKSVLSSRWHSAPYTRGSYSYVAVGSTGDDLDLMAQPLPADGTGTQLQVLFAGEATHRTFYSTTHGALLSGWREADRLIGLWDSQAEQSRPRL

## CC(=O)NCCCNCCCCNCCCN [N^1-acetyl-Spm, N^1-acetyl-spermine]
[1]; HL-60 cells, 48 hr exposure to high concentrations
  hpao mRNA level: no change
[1]; OVCAR-3 cells, very quickly after exposure
  hpao mRNA level: significant levels of hpao mRNA were induced
[2]; 2,4-dinitrophenylhydrazine HPLC
  3-acetamidopropanal produced on complete oxidation by PAO: equivalent amount
[2]; pH 7.6, catalase present, dansyl chloride HPLC
  polyamine product of complete PAO oxidation (Spd or putrescine): stoichiometric amounts
